# Structures can show the parent of a compound that is named as a salt.
# What was measured:
# [1] = target: T1, human recombinant Dipeptidyl peptidase IV enzyme (hrDPP IV) (Homo sapiens, UniProt P27487); test: DPP IV assay, cleavage of H-Gly-Pro-AMC by human recombinant DPP-IV enzyme; assay type: biochemical; details: for inhibition at 0.3 µM: 300 nM compound concentration
# T1 construct: purchased R&D systems
# Method: DPP IV activity was determined by the cleavage rate of 7-amino 4-methylcoumarin (AMC) from the substrate H-Gly-Pro-AMC. In brief, the assay was conducted by adding 3 ng of human recombinant Dipeptidyl peptidase IV enzyme (hrDPP IV, available commercially from R&D systems) in 70 μL of the assay buffer (25 mM HEPES, 140 mM NaCl and 1% BSA, pH 7.8) to a 96 well black flat bottom microtitre plate. Test compounds were added as 10 μL additions to all wells except blank and total activity wells. After incubation of test substance with enzyme for 60 minutes at room temperature, 10 μL of 100 μM substrate H-Gly-Pro-AMC was added. After mixing, the plate was left for 20 minutes at room temperature. Then the reaction was terminated by addition of 10 μL of 25% glacial acetic acid. Fluorescence was measured using Spectra Max Gemini XS (Molecular Devices, USA) at an excitation filter of 360 nm and emission filter of 460 nm.
# Test compounds dissolved in DMSO were diluted with assay buffer at different concentrations and tested in duplicates. Percentage inhibition was calculated with respect to total activity. IC50 value was calculated using Prism Software.
# T1 sequence (P27487 whole entry): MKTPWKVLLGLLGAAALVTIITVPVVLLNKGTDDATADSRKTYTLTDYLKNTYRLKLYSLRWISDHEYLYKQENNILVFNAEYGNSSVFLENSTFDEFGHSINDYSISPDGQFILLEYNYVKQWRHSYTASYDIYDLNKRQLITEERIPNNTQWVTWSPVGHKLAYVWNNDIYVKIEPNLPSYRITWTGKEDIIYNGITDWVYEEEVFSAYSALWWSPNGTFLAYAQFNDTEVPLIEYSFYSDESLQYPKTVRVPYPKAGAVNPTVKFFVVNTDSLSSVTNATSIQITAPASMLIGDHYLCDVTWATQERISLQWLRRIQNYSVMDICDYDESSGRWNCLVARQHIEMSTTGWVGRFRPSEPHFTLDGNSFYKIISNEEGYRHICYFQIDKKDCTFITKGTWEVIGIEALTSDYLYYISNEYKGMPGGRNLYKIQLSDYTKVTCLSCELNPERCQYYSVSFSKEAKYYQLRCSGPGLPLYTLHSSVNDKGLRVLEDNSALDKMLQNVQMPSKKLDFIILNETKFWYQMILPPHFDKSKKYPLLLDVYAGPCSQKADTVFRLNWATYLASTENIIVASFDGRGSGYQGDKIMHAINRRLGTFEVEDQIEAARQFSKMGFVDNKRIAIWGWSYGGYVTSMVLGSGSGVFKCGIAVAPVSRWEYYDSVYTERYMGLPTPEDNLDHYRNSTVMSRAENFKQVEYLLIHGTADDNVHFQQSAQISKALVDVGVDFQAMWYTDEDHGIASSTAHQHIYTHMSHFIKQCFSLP
SMILES,melting point,IC50 [1],inhibition at 0.3 µM [1]
"CC1(C)[C@@H](NCC(=O)N2CCC[C@H]2C#N)CC[C@@]1(C)c1nc(-c2ccc(F)cc2)no1 (as salt: methanesulfonate) [Example 66, (S)-1-(2-((1S,3R)-3-(3-(4-Fluorophenyl)-1,2,4-oxadiazol-5-yl)-2,2,3-trimethylcyclopentylamino)acetyl)pyrrolidine-2-carbonitrile methanesulfonate]",206 to 211 °C,–,–
CC1(C)[C@H](CNS(=O)(=O)c2ccc(F)cc2)CC[C@]1(C)NCC(=O)N1C[C@@H](F)C[C@H]1C#N [Example 20],75 to 78 °C,0.105 µM,–
"CC1(C)[C@@H](CS(=O)(=O)c2ccc(S(C)(=O)=O)cc2)CC[C@@]1(C)NCC(=O)N1C[C@H](F)C[C@H]1C#N [Example 43, (2S,4R)-4-Fluoro-1-(2-((1R,3S)-1,2,2-trimethyl-3-((4-(methylsulfonyl)phenylsulfonyl)methyl)cyclopentylamino)acetyl)pyrrolidine-2-carbonitrile]",163 to 166 °C,–,–
"CN1C(=O)[C@]2(C)CC[C@](NCC(=O)N3CCC[C@H]3C#N)(C1=O)C2(C)C [Example 75, (S)-1-(2-((1R,5R)-3,5,8,8-Tetramethyl-2,4-dioxo-3-azabicyclo[3.2.1]octan-1-ylamino)acetyl)pyrrolidine-2-carbonitrile]",141 to 144 °C,–,–
"CC1(C)[C@@]2(C)CC[C@]1(NCC(=O)N1CCC[C@H]1C#N)C(=O)OC2 [Example 79, (S)-1-(2-((1R,5R)-5,8,8-Trimethyl-2-oxo-3-oxabicyclo[3.2.1]octan-1-ylamino)acetyl)pyrrolidine-2-carbonitrile]",174 to 177 °C,–,–

# Results, then the compound that gave them:
melting point,IC50 [1],inhibition at 0.3 µM [1],SMILES
186 to 188 °C,0.222 ± 0.0568 µM,–,"CC1(C)[C@@H](Cn2cncn2)CC[C@@]1(C)NCC(=O)N1C[C@@H](F)C[C@H]1C#N [Example 1, (2S,4S)-1-(2-((1R,3S)-3-((1H-1,2,4-Triazol-1-yl)methyl)-1,2,2-trimethylcyclopentylamino)acetyl)-4-fluoropyrrolidine-2-carbonitrile]"
84 to 87 °C,0.215 µM,–,"CC1(C)[C@@H](Cn2nccn2)CC[C@@]1(C)NCC(=O)N1C[C@@H](F)C[C@H]1C#N [Example 10, (2S,4S)-1-(2-((1R,3S)-3-((2H-1,2,3-Triazol-2-yl)methyl)-1,2,2-trimethylcyclopentylamino)acetyl)-4-fluoropyrrolidine-2-carbonitrile]"
142 to 144 °C,0.0372 ± 0.00367 µM,–,"CC1(C)[C@H](Cn2nccn2)CC[C@]1(C)NCC(=O)N1C[C@@H](F)C[C@H]1C#N [Example 12, (2S,4S)-1-(2-((1S,3R)-3-((2H-1,2,3-Triazol-2-yl)methyl)-1,2,2-trimethylcyclopentylamino)acetyl)-4-fluoropyrrolidine-2-carbonitrile]"
240 to 279 °C,–,60.5%,"CC1(C)[C@@H](Cn2cc(CO)nn2)CC[C@@]1(C)NCC(=O)N1C[C@@H](F)C[C@H]1C#N [Example 15, (2S,4S)-4-Fluoro-1-(2-((1R,3S)-3-((4-(hydroxymethyl)-1H-1,2,3-triazol-1-yl)methyl)-1,2,2-trimethyleyclopentylamino)acetyl)pyrrolidine-2-carbonitrile]"
76 to 78 °C,0.0325 µM,–,"CC1(C)[C@H](Cn2cc(CO)nn2)CC[C@]1(C)NCC(=O)N1C[C@@H](F)C[C@H]1C#N [Example 16, (2S,4S)-4-Fluoro-1-(2-((1S,3R)-3-((4-(hydroxymethyl)-1H-1,2,3-triazol-1-yl)methyl)-1,2,2-trimethylcyclopentylamino)acetyl)pyrrolidine-2-carbonitrile]"
154 to 157 °C,–,84.9%,"CC1(C)[C@H](CNS(C)(=O)=O)CC[C@]1(C)NCC(=O)N1C[C@@H](F)C[C@H]1C#N [Example 18, N-(((1R,3S)-3-(2-((2S,4S)-2-Cyano-4-fluoropyrrolidin-1-yl)-2-oxoethylamino)-2,2,3-trimethylcyclopentyl)methyl)methanesulfonamide]"
